# Reference: patent US7829555B1, “Drug targeting” (The University of Manchester, priority 1997, dated 2010)
# What was measured:
# [1] = Reduction initiated release of aspirin, product analysis (HPLC) following γ-radiolysis; type: physicochemical; conditions: reduction by (CH3)2C.OH radical; N2O-saturated solution, quinone 100 μM, 2-propanol 8.3M (50%, v/v), pH 7.4
# Protocol: The reduction initiated release of aspirin from the indoloquinone-acetyl salicylic acid conjugate of Example 5 was investigated by product analysis (HPLC) following γ-radiolysis of N2O-saturated solutions containing the quinone (100 μM) and 2-propanol (8.3M, 50%, v/v) at pH 7.4.
# The radiation chemical yield (G) of the (CH3)2C.OH radical in N2O-saturated 2-propanol/water mixtures was determined by ferricyanide reduction to be G((CH3)2C.OH)=0.67±0.02 μmol J^−1 in 2-propanol/water (50%, v/v) and 0.72±0.03 μmol J^−1 in 1 M 2-propanol respectively. […] Loss of the parent quinone (G(−Q)=1.63±0.01 μmol J^−1) parallel the formation of the aspirin leaving group (LG) with G(LG)=1.40±0.15 μmol J^−1.
# Indolequinone solutions were saturated with N2O gas in gas-tight vials before irradiation in a ^60Co source. […] A dose rate of 6-6.5 Gy min^−1 was used, as determined by Fricke dosimetry and radiation chemical yields were corrected for the absorbed dose in the various alcohol-water mixtures employed.
# Product analysis following γ-radiolysis was performed by gradient HPLC separation on a 100 mm×4.6 mm base-deactivated reverse-phase column (Hichrom RPB, Hichrom, Reading, U.K.). […] Detection was at 232 nm using a Waters 486 detector (Watford, U.K.) and concentrations were determined from peak areas using Waters Maxima software.
# [2] = Pharmacokinetics of the indoloquinone-acetyl salicylic acid conjugate in carrageenin air pouch rats (HPLC of blood, exudate, urine); type: in vivo, male Wistar albino rats; conditions: rats with carrageenin air pouch, 20 mg conjugate injected, exudate and urine collected after 2 or 4 hours
# Protocol: Pharmacokinetics of the indoloquinone-acetyl salicylic acid conjugate of Example 5 were studied as follows:
# Three groups of male Wistar albino rats (n=5) received sterile air dorsally (day 1). After two days a further 20 ml sterile air were administered. On day 5, 2 ml of a 1% carrageenin in sterile saline was injected directly into the air pouch. Animals were housed in metabolic cages. 100 mg of the indoloquinone-aspirin conjugate of Example 5 were suspended in ethanol (2 ml). 50 mg acetyl salicylic acid was dissolved in 2 ml ethanol. 2 ml ethanol was used as a control. 18 ml sterile water were added to each sample. On day 9, each animal was injected with 4 ml of solution as follows: Group A—20 mg indoloquinone-aspirin conjugate Group B—10 mg acetyl salicylic acid Group C—ethanol (control) The animals were then returned to their cages for periods of either 2 (nos. 1, 2 and 3 from each group) or 4 hours (nos. 4 and 5 from each group). After this time the animals were anaesthetized and blood and exudate collected. Available urine was also collected.
compound,measurement,setting,value
"COC1=CC(=O)c2c(c(COC(=O)c3ccccc3OC(C)=O)c(C)n2C)C1=O [Example 5, 3-(2-Acetoxybenzoyloxy)methyl-1,2-dimethyl-5-methoxyindole-4,7-dione]","Formation of the aspirin leaving group, radiation chemical yield G(LG)",[1],1.40 ± 0.15 µmol/J
same,"Loss of the parent quinone, radiation chemical yield G(−Q)",[1],1.63 ± 0.01 µmol/J
same,Cleavage of conjugate in collected samples (HPLC),[2],cleaved to liberate acetyl salicylic acid
